Experimental data taken from US20250302846A1, “ANTIBIOTIC COMPOSITION AND METHODS OF USE THEREOF” (THE REGENTS OF THE UNIVERSITY OF COLORADO A BODY CORPORATE, priority 2022, published 2025).
Converted amounts (≈) assume the structure as drawn. “And” between values parts separate entries of the source, which are not always exact repeats. Equal values may be shown once. Read-outs that look alike come from different tables or passages of the source.

Assays:
E. coli (K-12) = test: Minimum inhibitory concentration determination in broth; type: cell-based; details: for MIC50: Escherichia coli
Protocol: (§1) Bacterial Strains: S. Typhimurium (SL1344), S. Typhimurium (14028s, ATCC), S. Typhimurium ΔacrAB (ALR1257), E. coli (K-12 derivative BW25113 (wild-type)), E. coli K-12 AtolC (JP313 delta tolC; also called AD3644 and JLD1285).
(§2) Minimum inhibitory concentration determination: Overnight LB-grown cultures were diluted in LB or MHB to an optical density (OD600) of 0.01 and distributed into polystyrene 96-well flat-bottom plates (Greiner, 655185). […] The final DMSO concentration was at or below 2%. Where indicated, PMB [0.5 μg/mL] was added prior to D66. Plates were grown at 37° C. with shaking and OD600 was monitored (BioTek Synergy H1 or BioTek Eon). MICs were defined as the concentration at which 95% of growth was inhibited (OD600).

E. coli K-12 ΔtolC = test: as above; type: cell-based; details: for MIC50: Escherichia coli
Protocol: as §1, §2

S. Typhimurium ΔacrAB = test: as above; type: cell-based; details: for MIC50: Salmonella enterica, TYPHIMURIUM
Protocol: as §1, §2

[1] = test system: S. Typhimurium strain SL1344; type: in vivo
Protocol: FIG. 5A-C. […] Mice were euthanized 48 hours after infection. […] Significance was determined by Mann-Whitney.
Female C57Bl/6 7-8-week-old mice were IP inoculated with S. Typhimurium strain SL1344. Six mice per cohort were IP-treated with 100 μL of vehicle (50% DMSO), 50 mg/kg of chloramphenicol, or 50 mg/kg of D66 at 10 minutes and 24 hours post-infection. Mice were euthanized at 48 hours by CO2 asphyxiation, followed by cervical dislocation. Spleen and liver were collected, homogenized in 1 mL PBS and serially diluted for plating to enumerate CFU. The experiment was performed twice independently with 7×10^3 CFU, 3×10^4 CFU respectively, as determined by plating. A ROUT test for outliers and a Mann-Whitney test for significance were performed in GraphPad Prism.

S. aureus FDA209 = test: Growth inhibition in broth (MIC95); type: cell-based; details: Staphylococcus aureus
Protocol: FIG. 8A-B. […] inhibits the growth of Gram-positive bacteria in broth. A) Dose response curves monitoring staphylococcal and B. subtills growth in the presence of […] from an OD600 of 0.01, normalized to growth in 2% DMSO after 18 hours. Mean and SEM of at least three biological replicates performed with technical triplicates. B) Table of […] concentrations that inhibit growth. For comparison, S. Typhimurium is included.

staphylococcal strains = test: MIC95 quoted for staphylococcal persister and biofilm experiments; type: cell-based; details: staphylococcal strains; read-out: MIC95
Protocol: A-D) Overnight cultures of the indicated strains were treated at time 0 with DMSO, ciprofloxacin [4 μg/mL], vancomycin [10 μg/mL], or the corresponding MIC95 concentration of D66 (1x MIC95=130 μM, 49 μg/mL). Cultures were plated for enumeration of CFU at time points indicated. Mean and SEM of three biological replicates. E) RAW 264.7 macrophage-like cells and HeLa cells were infected with S. aureus USA300, at MOIs of 0.5 and 2.5, respectively. Cells were treated two hours after infection with DMSO (gray circle on Y axis), or dilutions of D66 from 40 μM. After 8 hours of infection, cells were lysed and plated for enumeration of CFU. Mean and SEM of biological duplicates performed with technical triplicates each with six dilutions of D66. The IC50 value that was calculatable is indicated.
Biofilm formation was monitored after 18 hours in TSB with subinhibitory concentrations of DMSO, rifampin (1x MIC95=0.05 μg/mL), vancomycin (1x MIC95=1 μg/mL), or D66 (1x MIC95=130 μM). A-D) Crystal violet staining for accumulated biofilm mass measured at A595. Mean and […]

[2] = test system: 5-day-old staphylococcal biofilms; test: 5-day-old staphylococcal biofilms; type: cell-based; details: biofilms established 5 days in TSB, treated 18 hours, crystal violet
Protocol: (A-D). For the indicated strain, biofilms established in TSB for 5-days were treated for 18 hours with DMSO, rifampin (1x MIC95=0.05 μg/mL), vancomycin (1x MIC95=1 μg/mL), or D66 (Table 1). The remaining biofilm extracellular matrix was stained with crystal violet and the A595 was measured. Mean and SEM of three biological replicates performed with technical triplicates are shown. Asterisks indicate P≤0.05 as determined by one-way ANOVA compared to DMSO.

RAW 264.7 cells = test: Mitochondrial membrane potential with TMRM; details: uninfected RAW 264.7 cells; D66 first two hours; CCCP 7 μM

SMILES: O=C(Nc1cc(Cl)cc(Cl)c1)N1CCCN(Cc2ccccc2)CC1 [D66]
- MIC50 (E. coli (K-12); LB, read-out: MIC50 in LB): > 150 µM and > 57 µg/mL
- MIC50 (E. coli (K-12); MHB, read-out: MIC50 in MHB): > 150 µM
- cMIC95 in LB (E. coli (K-12); LB): >150 µM
- cMIC95 in MHB (E. coli (K-12); MHB): >150 µM
- cMIC95 in LB (E. coli K-12 ΔtolC; E. coli K-12 ΔtolC, LB): 52 µM
- cMIC95 in MHB (E. coli K-12 ΔtolC; E. coli K-12 ΔtolC, MHB): 43 µM
- MIC50 (E. coli K-12 ΔtolC; read-out: MIC50 in LB): 47 µM and 18 µg/mL
- MIC50 (E. coli K-12 ΔtolC; read-out: MIC50 in MHB): 36 ± 1 µM
- cMIC95 in LB (S. Typhimurium ΔacrAB; S. Typhimurium ΔacrAB, LB): 142 µM
- cMIC95 in MHB (S. Typhimurium ΔacrAB; S. Typhimurium ΔacrAB, MHB): 116 µM
- MIC50 (S. Typhimurium ΔacrAB; read-out: MIC50 in LB): 128 µM and 48 µg/mL
- MIC50 (S. Typhimurium ΔacrAB; read-out: MIC50 in MHB): 81 ± 6 µM
- S. Typhimurium colonization of spleen and liver (tissue CFU) ([1]; C57Bl/6 mice, 50 mg/kg IP at 10 minutes and 24 hours post-inoculation, 48 hours, P<0.05 Mann-Whitney): reduced S. Typhimurium colonization in both tissues
- survival and condition of infected treated mice ([1]; female, C57Bl/6, mouse, in vivo, ip, 50 mg/kg, 48 h): survived in good condition out to 48 hours
- MIC (S. aureus FDA209): 130 µM (≈ 49.2 µg/mL)
- MIC (staphylococcal strains): 130 µM and 49 µg/mL
- reduction of 5-day-old biofilms [2]: minimally effective
- TMRM fluorescence (mitochondrial membrane potential) (RAW 264.7 cells): increased TMRM signal in a dose-dependent manner
